Values of other authors in patent publication US20040157925A1, “Stable pharmaceutical composition of pravastatin” (priority 2001, published 2004).

Details: pH 3 or less as found in the stomach; degrades to lactone and 3-a-hydroxy-isopravastatin

Stability in a low pH environment: very unstable
Structure (SMILES): CC[C@H](C)C(=O)O[C@H]1C[C@H](O)C=C2C=C[C@H](C)[C@H](CC[C@@H](O)C[C@@H](O)CC(=O)O)[C@H]21 [Pravastatin sodium, (+)-(3R, 5R)-3,5-dihydroxy-7-[(1 S,2S,6S, 8S, 8aR)-6-hydroxy-2-methyl-8-[(S)-2-methylbutyryloxy]-1,2,6,7,8,8a-hexahydro-1-naphthyl]heptanoate]
